From ChEMBL document CHEMBL4229345, “Inhibition of trypanosome alternative oxidase without its N-terminal mitochondrial targeting signal (ΔMTS-TAO) by cationic and non-cationic 4-hydroxybenzoate and 4-alkoxybenzaldehyde derivatives active against T. brucei and T. congolense” (Eur J Med Chem, 2018)
Activity calls are given as the source filed them. The calls are words filed in the database; no cut-off is given here.

Legend:
[1] = test system: Trypanosoma brucei brucei; assay: Anti-parasitic activity against bloodstream trypomastigote stage of wild-type Trypanosoma brucei brucei Lister 427 after 48 hrs by resazurin-based assay; assay type: functional, organism-based; conditions: Lister 427, 48 h
[2] = Inhibition of recombinant N-terminal His6 tagged SUMO-fused Trypanosoma brucei brucei TC221 TAO MTS deletion mutant expressed in Escherichia coli FN102 preincubated for 2 mins followed by ubiquinol-1 addition measured over 2 mins by double beam-dual wavelength UV-spectrophotometry
[3] = test system: Trypanosoma congolense; assay: Potency index, ratio of diminazene EC50 to test compound EC50 for anti-parasitic activity against bloodstream form of Trypanosoma congolense IL3000; assay type: functional
[4] = test system: Trypanosoma brucei; assay: Anti-parasitic activity against bloodstream trypomastigote stage of pentamidine/diminazene/melaminophenyl arsenical resistant Trypanosoma brucei B48 after 48 hrs by resazurin-based assay; assay type: functional, organism-based; conditions: B48, 48 h
[5] = Stability in mouse serum assessed as compound hydrolysis after 24 hrs by LC/MS analysis; assay type: ADME, cell-free; conditions: read-out: Drug degradation
[6] = Stability in mouse serum assessed as compound hydrolysis after 2 hrs by LC/MS analysis; assay type: ADME, cell-free; conditions: read-out: Drug degradation
[7] = Selectivity index, ratio of CC50 for HFF cells to EC50 for bloodstream form of Trypanosoma congolense IL3000; assay type: toxicity; conditions: human, read-out: Ratio CC50/EC50
[8] = Resistance factor, ratio of EC50 for bloodstream trypomastigote stage of pentamidine/diminazene/melaminophenyl arsenical resistant Trypanosoma brucei B48 to EC50 for bloodstream trypomastigote stage of wild-type Trypanosoma brucei brucei Lister 427; assay type: functional
[9] = test system: Trypanosoma brucei brucei; assay: Anti-parasitic activity against bloodstream trypomastigote stage of Trypanosoma brucei brucei with AQP2/3-dd knock out after 48 hrs by resazurin-based assay; assay type: functional, organism-based
[10] = Cytotoxicity against HFF cells assessed as reduction in cell viability after 30 hrs by resazurin-based assay; conditions: human
[11] = test system: Trypanosoma brucei brucei; assay: Resistance factor, ratio of EC50 for bloodstream trypomastigote stage of Trypanosoma brucei brucei with AQP2/3-dd knock out to EC50 for bloodstream trypomastigote stage of wild-type Trypanosoma brucei brucei Lister 427; assay type: functional
[12] = test system: Trypanosoma congolense; assay: Anti-parasitic activity against bloodstream form of Trypanosoma congolense IL3000 after 48 hrs by resazurin-based assay; assay type: functional, organism-based; conditions: IL3000, 48 h
[13] = test system: Trypanosoma brucei brucei; assay: Resistance factor, ratio of EC50 for bloodstream trypomastigote stage of Trypanosoma brucei brucei AQP triple knock out to EC50 for bloodstream trypomastigote stage of wild-type Trypanosoma brucei brucei Lister 427; assay type: functional
[14] = test system: Trypanosoma brucei brucei; assay: Anti-parasitic activity against bloodstream trypomastigote stage of Trypanosoma brucei brucei with AQP triple knock out after 48 hrs by resazurin-based assay; assay type: functional, organism-based
[15] = test system: Trypanosoma brucei brucei; assay: Potency index, ratio of diminazene EC50 to test compound EC50 for anti-parasitic activity against bloodstream trypomastigote stage of wild-type Trypanosoma brucei brucei Lister 427; assay type: functional
[16] = Half life in mouse serum by LC/MS analysis; assay type: ADME, cell-free
[17] = Selectivity index, ratio of CC50 for HFF cells to EC50 for bloodstream trypomastigote stage of wild-type Trypanosoma brucei brucei Lister 427; assay type: toxicity; conditions: human, read-out: Ratio CC50/EC50
[18] = Stability in horse serum assessed as compound hydrolysis after 2 hrs by LC/MS analysis; assay type: ADME, cell-free, Equus caballus; conditions: read-out: Drug degradation
[19] = test system: Trypanosoma brucei brucei; assay: Resistance factor, ratio of EC50 for bloodstream trypomastigote stage of wild-type Trypanosoma brucei brucei Lister 427 in presence of 5 mM glycerol to EC50 for bloodstream trypomastigote stage of wild-type Trypanosoma brucei brucei Lister 427; assay type: functional
[20] = test system: Trypanosoma brucei brucei; assay: Anti-parasitic activity against bloodstream trypomastigote stage of wild-type Trypanosoma brucei brucei Lister 427 after 48 hrs in presence of 5 mM glycerol by resazurin-based assay; assay type: functional, organism-based; conditions: Lister 427, 48 h
[21] = Stability in mouse serum assessed as compound hydrolysis after 1 hr by LC/MS analysis; assay type: ADME, cell-free; conditions: read-out: Drug degradation
[22] = Selectivity index, ratio of CC50 for HEK cells to EC50 for bloodstream form of Trypanosoma congolense IL3000; assay type: toxicity; conditions: human, read-out: Ratio CC50/EC50
[23] = Cytotoxicity against HEK cells assessed as reduction in cell viability after 30 hrs by resazurin-based assay; conditions: human
[24] = Drug metabolism in human liver microsomes assessed as CYP450 mediated compound hydrolysis by measuring parent compound remaining at 5 uM measured after 120 mins in presence of NADPH by RP-HPLC analysis; assay type: ADME; conditions: read-out: Stability
[25] = Drug metabolism in human liver S9 fraction assessed as UGT mediated compound hydrolysis by measuring parent compound remaining at 5 uM measured immediately in presence of UDPGA by RP-HPLC analysis; assay type: ADME, subcellular; conditions: read-out: Stability
[26] = Drug metabolism in human liver S9 fraction assessed as CYP450 mediated compound hydrolysis by measuring parent compound remaining at 5 uM measured immediately in presence of NADPH by RP-HPLC analysis; assay type: ADME, subcellular; conditions: read-out: Stability
[27] = Drug metabolism in human liver S9 fraction assessed as CYP450 mediated compound hydrolysis by measuring parent compound remaining at 5 uM measured after 120 mins in presence of NADPH by RP-HPLC analysis; assay type: ADME, subcellular; conditions: read-out: Stability
[28] = test system: Trypanosoma brucei rhodesiense; assay: (§1) In vivo anti-parasitic activity against luciferase tagged Trypanosoma brucei rhodesiense STIB900 infected in NMRI mouse assessed as reduction in parasitemia at 10 mg/kg, ip for 4 consecutive days starting at day 3 post infection and measured after last treatment on day 7 (reference value: 0%); assay type: functional; parameters: scale not given: the % may be the effect or the level left
[29] = test system: Trypanosoma brucei rhodesiense; assay: In vivo anti-parasitic activity against luciferase tagged Trypanosoma brucei rhodesiense STIB900 infected in NMRI mouse assessed as cured mouse at 10 mg/kg, ip for 4 consecutive days starting at day 3 post infection; assay type: functional, organism-based
[30] = Drug metabolism in human liver S9 fraction assessed as CYP450 mediated compound hydrolysis by measuring parent compound remaining at 5 uM measured after 60 mins in presence of NADPH by RP-HPLC analysis; assay type: ADME, subcellular; conditions: read-out: Stability
[31] = Drug metabolism in human liver S9 fraction assessed as CYP450 mediated compound hydrolysis by measuring parent compound remaining at 5 uM measured after 15 mins in presence of NADPH by RP-HPLC analysis; assay type: ADME, subcellular; conditions: read-out: Stability
[32] = Drug metabolism in human liver S9 fraction assessed as UGT mediated compound hydrolysis by measuring parent compound remaining at 5 uM measured after 15 mins in presence of UDPGA by RP-HPLC analysis; assay type: ADME, subcellular; conditions: read-out: Stability
[33] = Stability in horse serum assessed as compound hydrolysis after 24 hrs by LC/MS analysis; assay type: ADME, cell-free, Equus caballus; conditions: read-out: Drug degradation
[34] = Drug metabolism in human liver S9 fraction assessed as UGT mediated compound hydrolysis by measuring parent compound remaining at 5 uM measured after 120 mins in presence of UDPGA by RP-HPLC analysis; assay type: ADME, subcellular; conditions: read-out: Stability
[35] = Drug metabolism in human liver S9 fraction assessed as UGT mediated compound hydrolysis by measuring parent compound remaining at 5 uM measured after 60 mins in presence of UDPGA by RP-HPLC analysis; assay type: ADME, subcellular; conditions: read-out: Stability
[36] = Competitive inhibition of recombinant N-terminal His6 tagged SUMO-fused Trypanosoma brucei brucei TC221 TAO MTS deletion mutant expressed in Escherichia coli FN102 preincubated for 2 mins followed by ubiquinol-1 addition measured over 2 mins by Lineweaver-Burk plot analysis
[37] = Drug metabolism in human liver microsomes assessed as CYP450 mediated compound hydrolysis by measuring parent compound remaining at 5 uM measured immediately in presence of NADPH by RP-HPLC analysis; assay type: ADME; conditions: read-out: Stability
[38] = Drug metabolism in human liver microsomes assessed as CYP450 mediated compound hydrolysis by measuring parent compound remaining at 5 uM measured after 60 mins in presence of NADPH by RP-HPLC analysis; assay type: ADME; conditions: read-out: Stability
[39] = test system: Trypanosoma brucei rhodesiense; assay: as §1, with “measured 3 days hrs” for “measured”, “10” for “7”; assay type: functional; parameters: scale not given: the % may be the effect or the level left
[40] = Drug metabolism in human liver microsomes assessed as CYP450 mediated compound hydrolysis by measuring parent compound remaining at 5 uM measured after 15 mins in presence of NADPH by RP-HPLC analysis; assay type: ADME; conditions: read-out: Stability
[41] = Drug metabolism in human liver S9 fraction assessed as CYP450 mediated compound hydrolysis by measuring parent compound remaining at 5 uM measured after 30 mins in presence of NADPH by RP-HPLC analysis; assay type: ADME, subcellular; conditions: read-out: Stability
[42] = Drug metabolism in human liver S9 fraction assessed as UGT mediated compound hydrolysis by measuring parent compound remaining at 5 uM measured after 30 mins in presence of UDPGA by RP-HPLC analysis; assay type: ADME, subcellular; conditions: read-out: Stability
[43] = Drug metabolism in human liver microsomes assessed as CYP450 mediated compound hydrolysis by measuring parent compound remaining at 5 uM measured after 30 mins in presence of NADPH by RP-HPLC analysis; assay type: ADME; conditions: read-out: Stability
[44] = Stability in mouse serum assessed as parent compound recovery after 15 mins by LC/MS analysis; assay type: ADME, cell-free; conditions: read-out: Drug recovery
[45] = Stability in mouse serum assessed as parent compound remaining after 0.25 to 24 hrs by LC/MS analysis; assay type: ADME, cell-free
[46] = Protein binding in mouse serum up to 24 hrs by LC/MS analysis; assay type: ADME, cell-free; conditions: read-out: PB (converted)

SMILES	EC50 [1] [nM]	IC50 [2] [nM]	Ratio EC50 [3]	EC50 [4] [nM]	metabolised at 24 h [5] [%]	selectivity ratio [7]	Ratio EC50 [8]	EC50 [9] [nM]	CC50 at 30 h [10] [nM]	Ratio EC50 [11]	EC50 [12] [nM]	Ratio EC50 [13]	EC50 [14] [nM]	Ratio EC50 [15]	selectivity ratio [17]	Ratio EC50 [19]	EC50 [20] [nM]	further results
Cc1cc(O)ccc1C(=O)OCCCCCCCCCCCCCC[P+](c1ccccc1)(c1ccccc1)c1ccccc1.[Br-]	2.4	81	5 - 40	2.2	> 99	> 5130	0.9	2.2	> 200000	0.92	39	2	5	5 - 40	> 83000	1.32	3.2	metabolised at 2 h [6]: 70%; half-life [16]: 1 h; metabolised at 2 h [18]: < 20%
O=C(OCCCCCCCCCCCCCC[n+]1cccc2ccccc21)c1ccc(O)cc1O	–	1360	–	–	–	–	–	–	–	–	–	–	–	–	–	–	–	metabolised at 1 h [21]: 50%
O=C(OCCCCCCCCCCCCBr)c1ccc(O)cc1O	–	17.4	–	–	–	–	1.03	10000	–	0.69	–	0.32	4700	–	> 27	0.42	6200	selectivity ratio [22]: > 7.7; CC50 at 30 h [23]: > 400000 nM
Cc1cc(O)cc(O)c1C(=O)OCCCCCCCCCCCCCC[P+](c1ccccc1)(c1ccccc1)c1ccccc1.[Br-]	1.6	88	5 - 40	1.9	< 20	> 40000	1.2	0.8	> 200000	0.51	5	0.89	1.4	5 - 40	> 125000	0.92	1.4	remaining at 2 h, 5 µM [24]: 93.1%; remaining at 0 min, 5 µM [25]: 100%; remaining at 0 min, 5 µM [26]: 100%; remaining at 2 h, 5 µM [27]: 94.1%; Activity [28]: 94.7%; Activity [29]: inactive; remaining at 1 h, 5 µM [30]: 96.4%; remaining at 0.25 h, 5 µM [31]: 92.3%; remaining at 0.25 h, 5 µM [32]: 79.4%; metabolised at 24 h [33]: < 30%; remaining at 2 h, 5 µM [34]: 52.6%; remaining at 1 h, 5 µM [35]: 58.2%; Ki [36]: 870 nM; remaining at 0 min, 5 µM [37]: 100%; remaining at 1 h, 5 µM [38]: 93.4%; Activity [39]: 27.9%; remaining at 0.25 h, 5 µM [40]: 93.4%; remaining at 0.5 h, 5 µM [41]: 101%; remaining at 0.5 h, 5 µM [42]: 66.9%; remaining at 0.5 h, 5 µM [43]: 86%
O=Cc1ccc(OCCCCCCCCCCCCCC[P+](c2ccccc2)(c2ccccc2)c2ccccc2)cc1O.[Br-]	133	220	–	110	–	> 740	0.8	42	> 200000	0.32	270	0.4	53	–	> 1500	0.51	67	remaining at 0.25 h [44]: 12%; Stability [45]: Stable; fraction unbound at 24 h [46]: 0.1
